Tests used:
[1] = system: HCT116 cells (PD-L1 positive); experiment: Cellular uptake and internalization, HCT116; format: cell-based, human; settings: HCT116, 1 × 10^6 cells/tube, 7.4 kBq, 37 °C, 1 h, n = 3
Description: Human colorectal cancer HCT116 (PD-L1 positive: 45.1 nTPM), human lung cancer HCC827 (PD-L1 positive: 27.1 nTPM), and […] C6 glioma cells (PD-L1 negative control) were obtained from ATCC (Atlanta, GA, USA). FBS, RPMI, and cell culture medium were obtained from Bovine and Biology (CDMX, MX). Cells were cultured in RPMI medium (5% CO2; 100 µg/mL penicillin, 15% fetal bovine serum, and 100 µg/mL streptomycin; 37 °C).
Cells diluted in phosphate-buffered saline (PBS) (pH 7.4) (1 × 10^6 cells/tube) received three different treatments: (a) [^99mTc]Tc-iPD-L1 (7.4 kBq) (n = 3), (b) and [^99mTc]Tc-WL12 (7.4 kBq) (n = 3), and (c) ^99mTcO4Na (7.4 kBq) (n = 3). Cells were incubated with each treatment at 37 °C for one hour. After incubation, tubes were measured in a NaI(Tl) detector (NML Inc., Houston, TX, USA) to establish the initial or first activity (100%). The tubes were spun at 500 g for 10 min, rinsed once with PBS, and spun once more. The liquid was removed, and the activity in the button was determined, indicating the percentage of cellular uptake (surface uptake) regarding the initial or first activity. Acetic acid/0.5 M NaCl was added, the tubes were centrifuged, and the activity was measured. The liquid was removed, and activity in button activity represented the percentage of activity internalized by cells relative to uptake activity (internalization fraction of surface uptake). […]

[2] = Reversed-phase radio-HPLC retention time (lipophilicity); format: physicochemical; settings: µBondapak C18 3.9 mm × 30 cm, linear gradient 0.1% TFA-acetonitrile / 0.1% TFA-water in 20 min; used as measure of lipophilicity
Description: For quality control of the [^99mTc]Tc-iPD-L1 and [^99mTc]Tc-WL12 formulations, parameters such as appearance (clear solution), pH (neutral), sterility, absence of bacterial endotoxins, and radiochemical purity (radio-HPLC; Waters Corporation, Milford, CT, USA; 3.9 mm × 30 cm µBondapak™ C18 column; linear gradient system; solvent A: 0.1% TFA-acetonitrile and solvent B: 0.1% TFA-water, from 100 to 30% of A in 20 min) were evaluated according to the Mexican Pharmacopoeia, in its section on “General Methods of Analysis” (MGA). The retention time of [^99mTc]Tc-WL12 was 15.0 ± 0.3 min and 15.5 ± 0.2 min for [^99mTc]Tc-iPD-L1, while the retention times of ^99mTcO4^− and [^99mTc]Tc-EDDA/tricine were 3.5 ± 0.2 min and 4.5 ± 0.2 min, respectively.
The radiochemical purities of [^99mTc]Tc-iPD-L1 and [^99mTc]Tc-WL12 were 95.5 ± 1.5% without the need for additional purification, as determined by reversed-phase radio-HPLC (Figure 8). As expected, the retention time of [^99mTc]Tc-iPD-L1 was higher than that of [^99mTc]Tc-WL12, which is associated with their CLogP values of 6.38 and 5.78, respectively.
Figure 8 Radio-chromatogram of (a) [^99mTc]Tc-iPD-L1 and (b) [^99mTc]Tc-WL12. Reversed-phase column (C18, 3.9 × 300 mm, 10µm particle size).

[3] = system: HCC827 lung cancer tumors; experiment: Biodistribution in mice bearing HCC827 tumors; format: in vivo, mouse; settings: mean over 1, 3 and 24 h
Description: All animal procedures were performed following the Institutional Animal Care and Use Committee requirements under an approved protocol (No. 09-2018-2022) and the Ethical Regulations for the Handling of Laboratory Animals (NOM-062-ZOO-1999). Male Nu/Nu (CINVESTAV, I.PN., Mexico City, Mexico) mice, 6–8 weeks of age, were maintained in an aseptic barrier environment. Mice were inoculated by subcutaneous injection of 1 × 10^6 HCC827 cells/0.1 mL PBS into the upper back. Injection sites were monitored periodically for tumor progression. On day ten after tumor cell inoculation, animals were injected with 18.5 MBq (50 µL) of [^99mTc]Tc-iPD-L1 or 18.5 MBq (50 µL) of [^99mTc]Tc-WL12 by tail vein injection. The animals were sacrificed at 1, 3, and 24 h (n = 3). Kidneys, lungs, heart, liver, spleen, pancreas, small intestine, stomach, muscle, and blood and tumor samples were dissected. Radioactivity was determined in a sodium iodide detector. The results were stated as % injected dose/g.
After 24 h, the activity in tumors was 3.21 ± 0.45 %ID/g ([^99mTc]Tc-WL12) and 5.65 ± 0.98 %ID/g ([^99mTc]Tc-iPD-L1). […] This behavior is related to the higher lipophilicity of [^99mTc]Tc-iPD-L1 compared to [^99mTc]Tc-WL12.

CCCC[C@H]1C(=O)N(C)[C@@H](CCCC)C(=O)N[C@@H](CCCNC(=O)c2ccc(NN)nc2)C(=O)N[C@H](C(=O)NCC(N)=O)CSCC(=O)N[C@@H](Cc2ccc(O)cc2)C(=O)N(C)[C@@H](C)C(=O)N[C@@H](CC(N)=O)C(=O)N2CCC[C@H]2C(=O)N[C@@H](Cc2c[nH]cn2)C(=O)N[C@@H](CC(C)C)C(=O)N2C[C@H](O)C[C@H]2C(=O)N[C@@H](Cc2c[nH]c3ccccc23)C(=O)N[C@@H](CO)C(=O)N[C@@H](Cc2cn(C)c3ccccc23)C(=O)N1C [[^99mTc]Tc-WL12, metal not drawn]
uptake and internalization compared to C6 cells (PD-L1 negative) [1]: significantly higher | retention time, reversed-phase radio-HPLC [2]: 15.0 ± 0.3 min | mean percentage of tumor uptake over time (two-way ANOVA) [3]: 6.617

— article PMC10747430, “^99mTc-Labeled Cyclic Peptide Targeting PD-L1 as a Novel Nuclear Imaging Probe” (Pharmaceutics, 2023)
